Assay results published in patent US20040235965A1, “Utilization of rutins and aescins in the treatment of circulatory disturbances of the ear” (priority 2001, published 2004).

Columns and labels:
Assay type in all cases: in vivo, human
[1] = tested on: patient with hearing impairment; assay: Pure-tone threshold audiometry in patient case examples under oral therapy; conditions: 2250 mg troxerutin orally daily
Excerpt: (§1) patient with tinnitus and vertigo attacks for 4 months.
Moderate hearing loss existed which was confirmed by pure-tone threshold audiometry to be a loss of hearing especially in the low and high frequency ranges. The underlying disease present was insulin-dependent diabetes mellitus. The findings existed for 4 months with the tendency for progressive worsening. […]

[2] = tested on: patient with tinnitus and vertigo attacks; assay: Frequency of vertigo attacks in patient case example 3; conditions: Case 3; 2250 mg troxerutin orally daily, 4-week therapy
Method: as §1
(§2) A 4-week therapy with 2250 mg of troxerutin orally daily followed. Under this, hearing improved in the 1st week by 10 dB in the low frequency range and by 5 dB in the high frequency range. There was no change in the frequency of vertigo attacks (1 to 4 times within 2 days).

[3] = tested on: patient with tinnitus and vertigo attacks; assay: Tinnitus pattern in patient case example 3; conditions: Case 3; 2250 mg troxerutin orally daily; 4th week of treatment
Method: as §1, §2

For “3′,4′,7-tris-O-(β-hydroxyethyl)rutin [troxerutin]”, the “improvement in the audiogram, high-frequency range, right ear” value ([1]; Case 1, 4-week therapy) was 10 dB, the “improvement of audiogram, high frequency range” value ([1]; Case 2, after 1 week) was “minor improvement” and the “improvement of audiogram, low frequency range” value ([1]; Case 2, after 1 week) was 10 dB. The “improvement of hearing, low frequency range” value ([1]; Case 3, moderate hearing loss, 1st week) was 10 dB, the “improvement of hearing, high frequency range” value ([1]; Case 3, 1st week) was 5 dB and the “improvement of hearing, high frequency range” value ([1]; Case 4, week 3) was “marginally”. The “improvement of hearing, low frequency range” value ([1]; Case 4, week 3) was 10 dB, the “frequency of vertigo attacks” value [2] was “no change” and the tinnitus pattern [3] was “intermittent with relatively frequent absences which lasted for hours”.
